Data reported in ChEMBL document CHEMBL1201862, “PubChem BioAssay data set” (2004).
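Briefly, cells in 96-well plates were exposed to five compound concentrations for 48 h, and endpoints were estimated by linear interpolation. Abbreviation: GI50, concentration required for 50% inhibition of growth.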 Active and inactive are the calls of the source. No stated cut-off is given here; in the data, active = GI50 up to about 1.1 µM and inactive = higher.

Legend:
Experiment in all cases: NCI tumour cell line growth inhibition, 48 h
RXF 393 = system: RXF 393
T47D = system: T47D
MOLT-4 = system: MOLT-4
Hs-578T = system: Hs-578T
SK-OV-3 = system: SK-OV-3
KM12 = system: KM12
BT-549 = system: BT-549
M14 = system: M14
CAKI-1 = system: CAKI-1
EKVX = system: EKVX
A498 = system: A498
LOX IMVI = system: LOX IMVI
OVCAR-5 = system: OVCAR-5
786-0 = system: 786-0
SN12C = system: SN12C
HOP-62 = system: HOP-62
NCI-H226 = system: NCI-H226
MDA-N = system: MDA-N
UO-31 = system: UO-31
MDA-MB-435 = system: MDA-MB-435
PC-3 = system: PC-3
DU-145 = system: DU-145
SR = system: SR
MCF7 = system: MCF7
NCI/ADR-RES = system: NCI/ADR-RES
HOP-92 = system: HOP-92
HL-60 = system: HL-60
SF-539 = system: SF-539
NCI-H460 = system: NCI-H460
HCT-116 = system: HCT-116
SF-268 = system: SF-268
U-251 = system: U-251
HCC 2998 = system: HCC 2998
SK-MEL-2 = system: SK-MEL-2
CCRF-CEM = system: CCRF-CEM
NCI-H23 = system: NCI-H23
OVCAR-4 = system: OVCAR-4
SK-MEL-28 = system: SK-MEL-28
UACC-257 = system: UACC-257
TK-10 = system: TK-10
HT-29 = system: HT-29
SF-295 = system: SF-295
UACC-62 = system: UACC-62
MDA-MB-231 = system: MDA-MB-231
A549 = system: A549
NCI-H522 = system: NCI-H522
SNB-19 = system: SNB-19
IGROV-1 = system: IGROV-1
OVCAR-3 = system: OVCAR-3
K562 = system: K562
COLO 205 = system: COLO 205
SK-MEL-5 = system: SK-MEL-5
SNB-75 = system: SNB-75
SW-620 = system: SW-620
Malme-3M = system: Malme-3M
ACHN = system: ACHN
RPMI-8226 = system: RPMI-8226
OVCAR-8 = system: OVCAR-8
HCT-15 = system: HCT-15

Measured: GI50

C/C(=N\Nc1nc2ccccc2n1C)c1ccc2ccccc2n1
inactive: RXF 393 5200 nM | Hs-578T 15400 nM | SK-OV-3 12000 nM | BT-549 > 22300 nM | A498 3690 nM | LOX IMVI 1640 nM | OVCAR-5 1530 nM | 786-0 1990 nM | SN12C 1820 nM | HOP-62 3130 nM | NCI-H226 1870 nM | MDA-N 5040 nM | MDA-MB-435 4240 nM | DU-145 3860 nM | NCI/ADR-RES 1630 nM | HOP-92 2480 nM | SF-539 4530 nM | NCI-H460 2560 nM | SF-268 2870 nM | U-251 2000 nM | SK-MEL-2 6560 nM | NCI-H23 4410 nM | SK-MEL-28 5090 nM | UACC-257 4360 nM | TK-10 2530 nM | SF-295 2210 nM | UACC-62 2320 nM | A549 2710 nM | SNB-19 4660 nM | K562 2070 nM | SK-MEL-5 1240 nM | SNB-75 7240 nM | Malme-3M 1590 nM
active: T47D < 10 nM | MOLT-4 414 nM | KM12 528 nM | M14 1020 nM | CAKI-1 611 nM | EKVX 144 nM | UO-31 1040 nM | PC-3 212 nM | SR 510 nM | MCF7 406 nM | HL-60 774 nM | HCT-116 791 nM | HCC 2998 256 nM | CCRF-CEM 244 nM | OVCAR-4 190 nM | HT-29 86.1 nM | MDA-MB-231 916 nM | NCI-H522 416 nM | IGROV-1 16 nM | OVCAR-3 48.9 nM | COLO 205 228 nM | SW-620 350 nM

CCOC(=O)c1cccc(NC(=O)CCl)c1
2750 nM: HCT-15
inactive: RXF 393 3000 nM | T47D 2480 nM | MOLT-4 5200 nM | Hs-578T 2930 nM | SK-OV-3 4920 nM | KM12 7460 nM | BT-549 4450 nM | M14 8610 nM | CAKI-1 1880 nM | EKVX 3180 nM | A498 15200 nM | LOX IMVI 1340 nM | OVCAR-5 7000 nM | 786-0 1900 nM | SN12C 2010 nM | HOP-62 2440 nM | NCI-H226 6550 nM | MDA-N 3920 nM | UO-31 4040 nM | MDA-MB-435 2380 nM | PC-3 6100 nM | DU-145 9440 nM | SR 1770 nM | MCF7 2260 nM | NCI/ADR-RES 3610 nM | HOP-92 7450 nM | HL-60 3940 nM | SF-539 2340 nM | NCI-H460 1190 nM | ACHN 3480 nM | HCT-116 2800 nM | SF-268 2110 nM | U-251 1400 nM | HCC 2998 2190 nM | SK-MEL-2 2640 nM | CCRF-CEM 3210 nM | NCI-H23 3220 nM | OVCAR-4 2370 nM | SK-MEL-28 16700 nM | UACC-257 5090 nM | TK-10 6030 nM | HT-29 3810 nM | SF-295 12300 nM | UACC-62 1520 nM | MDA-MB-231 4570 nM | A549 10400 nM | NCI-H522 1680 nM | SNB-19 28600 nM | IGROV-1 2480 nM | OVCAR-3 1860 nM | K562 3080 nM | RPMI-8226 3990 nM | OVCAR-8 3550 nM | COLO 205 7740 nM | SK-MEL-5 1790 nM | SNB-75 2770 nM | SW-620 3320 nM | Malme-3M 6220 nM
